Results published in patent US20100247427A1, “Methods of inhibiting cell growth and methods of enhancing radiation responses” (University of South Florida, priority 2005, published 2010).

Tests used:
Stat3 = Stat3 (Homo sapiens, UniProt P40763); details: other reports; cited from earlier work
DU145 cells = assay: TUNEL assay for apoptosis; format: cell-based, Human; details: Cisplatin plus radiation; FIG. 5
Protocol: TUNEL assay. Cells were labeled for apoptotic DNA strand breaks by terminal deoxyribonucleotidyl transferase-mediated dUTP nick end labeling (TUNEL) reaction using a flow cytometry assay (Roche Applied Science, Indianapolis, Ind.) according to the instructions of the supplier. DU145 cells were treated with CPA-7 for 4 hours, then irradiated, and subjected to the TUNEL assay 24 to 48 hours later. To determine cellular viability, cells were harvested by trypsinization and counted by trypan blue exclusion assay at 24 and 48 hours after irradiation. All experiments were done in triplicate.
The enhancement of radiation responsiveness was also evident when apoptosis was measured using a TUNEL assay (FIGS. 4 and 5). DU145 cells were pre-treated for 4 hours with CPA-7 or vehicle alone prior to radiation. A TUNEL assay was performed 24 hours post-radiation and the results are depicted in FIG. 4. At 24 hours, only 2% of untreated cells had undergone spontaneous apoptosis. […] In contrast, 15.7% of cells treated with both radiation and CPA-7 had undergone apoptosis at 24 hours, indicative of a synergistic effect. FIG. 5 depicts the results of a similar assay in which cells were pre-treated with CPA-7 for 24 hours prior to irradiation. […] Additionally, not all platinum complexes have this effect.

Sequence of Stat3 (P40763 whole entry, species assumed): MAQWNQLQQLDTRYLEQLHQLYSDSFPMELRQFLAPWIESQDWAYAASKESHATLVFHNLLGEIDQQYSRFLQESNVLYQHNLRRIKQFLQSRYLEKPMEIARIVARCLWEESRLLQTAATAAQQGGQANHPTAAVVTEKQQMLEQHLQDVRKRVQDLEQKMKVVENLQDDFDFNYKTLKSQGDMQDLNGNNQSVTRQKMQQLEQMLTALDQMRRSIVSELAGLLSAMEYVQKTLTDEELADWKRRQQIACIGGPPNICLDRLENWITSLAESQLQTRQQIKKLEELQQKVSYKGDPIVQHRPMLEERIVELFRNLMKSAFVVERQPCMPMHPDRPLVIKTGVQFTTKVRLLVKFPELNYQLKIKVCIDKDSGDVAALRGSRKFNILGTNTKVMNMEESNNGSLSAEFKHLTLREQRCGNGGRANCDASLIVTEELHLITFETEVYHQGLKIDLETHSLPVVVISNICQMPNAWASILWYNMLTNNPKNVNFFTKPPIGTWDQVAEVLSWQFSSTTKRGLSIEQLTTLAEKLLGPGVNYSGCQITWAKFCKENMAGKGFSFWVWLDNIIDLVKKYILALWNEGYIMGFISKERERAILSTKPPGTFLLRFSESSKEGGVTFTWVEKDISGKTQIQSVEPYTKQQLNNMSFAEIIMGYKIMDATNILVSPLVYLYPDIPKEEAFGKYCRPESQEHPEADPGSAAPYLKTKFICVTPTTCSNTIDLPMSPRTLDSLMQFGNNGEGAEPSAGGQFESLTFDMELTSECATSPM

SMILES: N.N.[Cl][Pt][Cl] [Cisplatin]
- modulation of Stat3 activation (Stat3): does not modulate Stat3 activation
- apoptosis rate in combination with radiation (TUNEL) (DU145 cells): not significantly enhanced
